# Data taken from PubChem BioAssay (NCI).
#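 Assay format: 96-well plates, 48-hour exposure. GI50 marks 50% less growth. TGI is the concentration that stops growth completely.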
# How the values were obtained:
# Assay in all cases: DTP human tumour cell line panel, 48 h
# U251 CNS = system: U251 CNS
# UACC-257 melanoma = system: UACC-257 melanoma
# LOX IMVI melanoma = system: LOX IMVI melanoma
# NCI-H460 lung = system: NCI-H460 lung
# A498 renal = system: A498 renal
# RXF 393 renal = system: RXF 393 renal
# SF-268 CNS = system: SF-268 CNS
# SN12C renal = system: SN12C renal
# UACC-62 melanoma = system: UACC-62 melanoma
# NCI-H226 lung = system: NCI-H226 lung
structure (smiles),measurement,setting,value
O=C(O)C1c2ccccc2C(C(=O)O)c2ccccc21 (centres undefined),TGI,U251 CNS,> 100 µM
same,TGI,UACC-257 melanoma,> 100 µM
same,TGI,LOX IMVI melanoma,> 100 µM
same,TGI,NCI-H460 lung,> 100 µM
same,TGI,A498 renal,> 100 µM
same,TGI,RXF 393 renal,> 100 µM
same,TGI,SF-268 CNS,> 100 µM
same,TGI,SN12C renal,> 100 µM
same,TGI,UACC-62 melanoma,> 100 µM
CC[C@@H](C(=O)[C@@H](C)[C@@H](O)[C@H](C)[C@@H]1O[C@@H]([C@@H](CC)C(=O)O)CC[C@@H]1C)[C@H]1OC2(C=C[C@@H](O)[C@]3(CC[C@@](C)([C@H]4CC[C@](O)(CC)[C@H](C)O4)O3)O2)[C@H](C)C[C@@H]1C (some centres undefined),GI50,U251 CNS,0.135 µM
same,TGI,U251 CNS,5.56 µM
same,GI50,UACC-257 melanoma,0.241 µM
same,TGI,UACC-257 melanoma,5.49 µM
same,GI50,LOX IMVI melanoma,0.505 µM
same,TGI,LOX IMVI melanoma,> 19 µM
same,GI50,NCI-H460 lung,0.324 µM
same,TGI,NCI-H460 lung,7.79 µM
same,GI50,A498 renal,0.0276 µM
same,TGI,A498 renal,0.458 µM
same,GI50,RXF 393 renal,0.0485 µM
same,TGI,RXF 393 renal,1.85 µM
same,GI50,SF-268 CNS,1.7 µM
same,TGI,SF-268 CNS,26.3 µM
same,GI50,SN12C renal,0.14 µM
same,TGI,SN12C renal,> 50 µM
same,GI50,UACC-62 melanoma,0.701 µM
same,TGI,UACC-62 melanoma,1.55 µM
Cc1cc(C(=O)N2CCN(Cc3ccccc3)CC2)c(C)o1,TGI,U251 CNS,> 100 µM
same,TGI,UACC-257 melanoma,> 100 µM
same,TGI,LOX IMVI melanoma,> 100 µM
same,TGI,NCI-H460 lung,> 100 µM
same,TGI,A498 renal,> 100 µM
same,TGI,SF-268 CNS,> 100 µM
same,TGI,SN12C renal,> 100 µM
same,TGI,UACC-62 melanoma,> 100 µM
COc1cccc(NC(=O)CC(=O)N2NC(C)C(N=Nc3cccc(C(=O)O)c3)C2=O)c1 (centres undefined),TGI,U251 CNS,> 100 µM
same,TGI,UACC-257 melanoma,> 100 µM
same,TGI,LOX IMVI melanoma,> 100 µM
same,TGI,NCI-H460 lung,> 100 µM
same,TGI,A498 renal,> 100 µM
same,TGI,NCI-H226 lung,> 100 µM
same,TGI,SF-268 CNS,> 100 µM
same,TGI,SN12C renal,> 100 µM
same,TGI,UACC-62 melanoma,> 100 µM
c1ccc(-c2nn(-c3ccccc3)[n+](-c3cccc4ccccc34)n2)cc1,GI50,U251 CNS,0.967 µM
same,TGI,U251 CNS,> 100 µM
same,GI50,UACC-257 melanoma,0.48 µM
same,TGI,UACC-257 melanoma,8.18 µM
same,GI50,LOX IMVI melanoma,1.23 µM
same,TGI,LOX IMVI melanoma,> 100 µM
same,GI50,NCI-H460 lung,1.43 µM
same,TGI,NCI-H460 lung,10.4 µM
same,GI50,A498 renal,2.91 µM
same,TGI,A498 renal,33.8 µM
same,GI50,RXF 393 renal,2.24 µM
same,TGI,RXF 393 renal,31.4 µM
same,GI50,SF-268 CNS,2.04 µM
same,TGI,SF-268 CNS,20.5 µM
same,GI50,SN12C renal,2.45 µM
same,TGI,SN12C renal,> 100 µM
same,GI50,UACC-62 melanoma,1.14 µM
same,TGI,UACC-62 melanoma,3.59 µM
Clc1ccc(OC2CCO2)cc1Cl (centres undefined),TGI,U251 CNS,> 100 µM
same,TGI,UACC-257 melanoma,> 100 µM
same,TGI,NCI-H460 lung,> 100 µM
same,TGI,A498 renal,> 100 µM
same,TGI,NCI-H226 lung,> 100 µM
same,TGI,SF-268 CNS,> 100 µM
same,TGI,SN12C renal,> 100 µM
same,TGI,UACC-62 melanoma,> 100 µM
C/C(=N/NC(=O)C(N)=O)C(CC(C(=O)Nc1ccccc1C)/C(C)=N\NC(=O)C(N)=O)C(=O)Nc1ccccc1C (centres undefined),TGI,U251 CNS,> 100 µM
same,TGI,UACC-257 melanoma,> 100 µM
same,TGI,LOX IMVI melanoma,> 100 µM
same,TGI,NCI-H460 lung,> 100 µM
same,TGI,A498 renal,> 100 µM
same,TGI,RXF 393 renal,> 100 µM
same,TGI,NCI-H226 lung,> 100 µM
same,TGI,SF-268 CNS,> 100 µM
same,TGI,SN12C renal,> 100 µM
Cc1cc(NS(=O)(=O)c2ccc(NC(=O)c3cccc4c(Nc5ccc(S(=O)(=O)Nc6cc(C)on6)cc5)c5ccccc5nc34)cc2)no1,TGI,U251 CNS,86.9 µM
same,TGI,UACC-257 melanoma,> 100 µM
same,TGI,LOX IMVI melanoma,87.5 µM
same,TGI,NCI-H460 lung,> 100 µM
same,TGI,A498 renal,> 100 µM
same,TGI,RXF 393 renal,61.5 µM
same,TGI,SF-268 CNS,> 100 µM
same,TGI,SN12C renal,> 100 µM
same,TGI,UACC-62 melanoma,35 µM
N#CCC(=O)N/N=C1\C(=O)N(c2ccc(Cl)cc2)C(=O)C(=O)C1c1nc2ccccc2o1 (centres undefined),TGI,U251 CNS,> 100 µM
same,TGI,UACC-257 melanoma,> 100 µM
same,TGI,NCI-H460 lung,> 100 µM
same,TGI,A498 renal,> 100 µM
same,TGI,RXF 393 renal,> 100 µM
same,TGI,NCI-H226 lung,> 100 µM
same,TGI,SF-268 CNS,> 100 µM
same,TGI,SN12C renal,> 100 µM
same,TGI,UACC-62 melanoma,> 100 µM
CC(=O)OC1C(CCl)OC(N=[N+]=[N-])C(OC(C)=O)C1OC(C)=O (centres undefined),TGI,U251 CNS,> 100 µM
same,TGI,UACC-257 melanoma,> 100 µM
same,TGI,NCI-H460 lung,> 100 µM
same,TGI,A498 renal,> 100 µM
same,TGI,RXF 393 renal,> 100 µM
same,TGI,SF-268 CNS,> 100 µM
same,TGI,SN12C renal,> 100 µM
same,TGI,UACC-62 melanoma,> 100 µM
CC1(C)CC2C=C(C=O)C3(C=O)CC3(C)C2C1 (centres undefined),TGI,U251 CNS,6.45 µM
same,TGI,UACC-257 melanoma,7.11 µM
same,TGI,LOX IMVI melanoma,2.81 µM
same,TGI,NCI-H460 lung,10.6 µM
same,TGI,RXF 393 renal,3.41 µM
same,TGI,NCI-H226 lung,9.18 µM
same,TGI,SF-268 CNS,6.02 µM
same,TGI,SN12C renal,8.23 µM
same,TGI,UACC-62 melanoma,17.1 µM
CC(C)(C)[Si](C)(C)O/N=C\c1ccc(O[Si](C)(C)C(C)(C)C)cc1,TGI,U251 CNS,61.7 µM
same,TGI,UACC-257 melanoma,> 100 µM
same,TGI,LOX IMVI melanoma,40.1 µM
same,TGI,NCI-H460 lung,> 100 µM
same,TGI,A498 renal,> 100 µM
same,TGI,RXF 393 renal,63.7 µM
same,TGI,SF-268 CNS,> 100 µM
same,TGI,SN12C renal,> 100 µM
same,TGI,UACC-62 melanoma,> 100 µM
O=C(c1cccs1)c1c(C(F)(F)F)n([O-])c2ccc(F)cc2[n+]1=O,GI50,U251 CNS,1.31 µM
same,TGI,U251 CNS,2.6 µM
same,GI50,UACC-257 melanoma,1.53 µM
same,TGI,UACC-257 melanoma,2.91 µM
same,GI50,LOX IMVI melanoma,0.971 µM
same,TGI,LOX IMVI melanoma,2.67 µM
same,GI50,NCI-H460 lung,1.38 µM
same,TGI,NCI-H460 lung,3.84 µM
same,GI50,A498 renal,1.95 µM
same,TGI,A498 renal,4.08 µM
same,GI50,RXF 393 renal,1.2 µM
same,TGI,RXF 393 renal,2.74 µM
same,GI50,NCI-H226 lung,1.76 µM
same,TGI,NCI-H226 lung,3.39 µM
same,GI50,SN12C renal,1.58 µM
same,TGI,SN12C renal,4.33 µM
same,GI50,UACC-62 melanoma,1.41 µM
same,TGI,UACC-62 melanoma,2.81 µM
N#Cc1cccc(NC(=O)c2oc3ccccc3c2-c2cnn(-c3ccccc3)c2)c1,GI50,U251 CNS,256 µM
same,TGI,U251 CNS,> 500 µM
same,GI50,UACC-257 melanoma,> 500 µM
same,TGI,UACC-257 melanoma,> 500 µM
same,GI50,LOX IMVI melanoma,308 µM
same,TGI,LOX IMVI melanoma,> 500 µM
same,GI50,NCI-H460 lung,> 500 µM
same,TGI,NCI-H460 lung,> 500 µM
same,GI50,RXF 393 renal,185 µM
same,TGI,RXF 393 renal,> 500 µM
same,GI50,NCI-H226 lung,> 500 µM
same,TGI,NCI-H226 lung,> 500 µM
same,GI50,SF-268 CNS,304 µM
same,TGI,SF-268 CNS,> 500 µM
same,GI50,SN12C renal,> 500 µM
same,TGI,SN12C renal,> 500 µM
same,GI50,UACC-62 melanoma,> 500 µM
same,TGI,UACC-62 melanoma,> 500 µM
C=C1C(=O)O[C@@H]2C[C@@H]1CC[C@@]1(C)O[C@@H]1CC[C@@]1(C)O[C@@H]1CC[C@@]2(C)O,GI50,U251 CNS,16.1 µM
same,TGI,U251 CNS,36.1 µM
same,GI50,UACC-257 melanoma,43.6 µM
same,TGI,UACC-257 melanoma,> 100 µM
same,GI50,LOX IMVI melanoma,15.7 µM
same,TGI,LOX IMVI melanoma,31 µM
same,GI50,NCI-H460 lung,60.3 µM
same,TGI,NCI-H460 lung,> 100 µM
same,GI50,RXF 393 renal,42.8 µM
same,TGI,RXF 393 renal,> 100 µM
same,GI50,NCI-H226 lung,16.9 µM
same,TGI,NCI-H226 lung,35.9 µM
same,GI50,SF-268 CNS,40.5 µM
same,TGI,SF-268 CNS,> 100 µM
same,GI50,SN12C renal,16.1 µM
same,TGI,SN12C renal,40.1 µM
same,GI50,UACC-62 melanoma,14.6 µM
same,TGI,UACC-62 melanoma,30.2 µM
COc1cc2cc[n+]3c4cc(OC)c(OC)cc4c(C)cc3c2cc1OC,TGI,U251 CNS,> 100 µM
same,TGI,UACC-257 melanoma,> 100 µM
same,TGI,LOX IMVI melanoma,> 100 µM
same,TGI,NCI-H460 lung,> 100 µM
same,TGI,NCI-H226 lung,> 100 µM
same,TGI,SN12C renal,> 100 µM
same,TGI,UACC-62 melanoma,> 100 µM
COc1ccc(C2=C(c3cc(OC)c(OC)c(OC)c3)C(=O)CC2)cc1,GI50,U251 CNS,0.324 µM
same,TGI,U251 CNS,> 100 µM
same,TGI,UACC-257 melanoma,> 100 µM
same,GI50,LOX IMVI melanoma,0.441 µM
same,TGI,LOX IMVI melanoma,> 100 µM
same,GI50,NCI-H460 lung,0.224 µM
same,GI50,A498 renal,0.0403 µM
same,TGI,A498 renal,0.429 µM
same,GI50,NCI-H226 lung,0.425 µM
same,TGI,NCI-H226 lung,> 22.6 µM
same,GI50,SF-268 CNS,0.668 µM
same,TGI,SF-268 CNS,> 33.8 µM
same,GI50,SN12C renal,0.676 µM
same,TGI,SN12C renal,> 100 µM
same,GI50,UACC-62 melanoma,0.0812 µM
same,TGI,UACC-62 melanoma,> 100 µM
Cc1cc(C)cc(Sc2c([N+](=O)[O-])ncn2C)c1,TGI,U251 CNS,36.7 µM
same,TGI,UACC-257 melanoma,27.7 µM
same,TGI,LOX IMVI melanoma,25.6 µM
same,TGI,NCI-H460 lung,> 100 µM
same,TGI,A498 renal,77.1 µM
same,TGI,NCI-H226 lung,22 µM
same,TGI,SF-268 CNS,33.9 µM
same,TGI,SN12C renal,31.8 µM
same,TGI,UACC-62 melanoma,29.8 µM
